Read-outs that look alike come from different tables or passages of the source.
Legend:
[1] = target: T1, human recombinant adrenergic α2A receptor (Homo sapiens, UniProt P08913); experiment: Radioligand binding, adrenergic α2A ([3H]MK-912); conditions: for Percentage inhibition of ligand binding, Adrenergic α2A / Percentage inhibition of ligand binding, Adrenergic α2A (0.1 μM): 0.1 µM
T1 construct: expressed in transfected cells; host or cells: insect Sf9 cells
T1 sequence (P08913 1-465): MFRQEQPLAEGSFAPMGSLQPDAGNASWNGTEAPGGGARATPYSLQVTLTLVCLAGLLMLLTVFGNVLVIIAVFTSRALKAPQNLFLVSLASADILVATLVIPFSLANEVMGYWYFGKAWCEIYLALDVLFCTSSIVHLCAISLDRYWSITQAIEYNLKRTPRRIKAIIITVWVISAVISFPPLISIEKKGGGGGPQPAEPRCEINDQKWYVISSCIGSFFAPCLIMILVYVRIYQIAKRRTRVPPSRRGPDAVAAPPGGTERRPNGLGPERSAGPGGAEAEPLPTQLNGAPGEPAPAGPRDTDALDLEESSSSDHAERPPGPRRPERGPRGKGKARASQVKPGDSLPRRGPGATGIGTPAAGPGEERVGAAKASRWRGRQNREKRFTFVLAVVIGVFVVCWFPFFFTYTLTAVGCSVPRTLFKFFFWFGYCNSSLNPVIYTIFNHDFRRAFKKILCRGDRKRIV
Summary of the method: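 Displacement of 1 nM [3H]MK-912 from receptor produced in insect Sf9 cells was measured after 60 min at 25 °C. Readout: percent inhibition of specific binding.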

[2] = target: T2, rat adrenergic α1B receptor (Rattus norvegicus, UniProt P15823); experiment: Radioligand binding, adrenergic α1B ([3H]Prazosin)
T2 construct: rat adrenergic α1B receptor obtained from Wistar Rat liver; from tissue; host or cells: Wistar rat liver
T2 sequence (P15823 1-515): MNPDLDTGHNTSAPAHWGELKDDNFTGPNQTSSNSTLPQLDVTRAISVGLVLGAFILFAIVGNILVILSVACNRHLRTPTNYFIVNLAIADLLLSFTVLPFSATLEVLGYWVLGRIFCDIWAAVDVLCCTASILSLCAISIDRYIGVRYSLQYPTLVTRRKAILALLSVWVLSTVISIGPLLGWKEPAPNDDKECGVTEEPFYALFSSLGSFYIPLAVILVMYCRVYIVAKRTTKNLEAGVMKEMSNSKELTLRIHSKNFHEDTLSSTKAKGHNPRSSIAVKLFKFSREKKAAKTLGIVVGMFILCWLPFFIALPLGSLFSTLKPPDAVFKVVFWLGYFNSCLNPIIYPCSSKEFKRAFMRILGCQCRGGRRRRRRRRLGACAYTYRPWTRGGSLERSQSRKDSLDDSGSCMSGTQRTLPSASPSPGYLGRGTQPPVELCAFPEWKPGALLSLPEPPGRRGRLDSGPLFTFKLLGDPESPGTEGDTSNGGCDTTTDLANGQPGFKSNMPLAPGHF
Summary of the method: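 Specific binding, taken as total minus that remaining with 10 μM phentolamine, is measured after filtration and counting. Rat liver receptor preparation and 0.25 nM [3H]prazosin are incubated with compound in 50 mM Tris-HCl (pH 7.4, 0.5 mM EDTA) at 25° C for 60 min. Activity is reported as percent inhibition.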

[3] = target: T3, human recombinant adrenergic α2B receptor (Homo sapiens, UniProt P18089); experiment: Radioligand binding, adrenergic α2B ([3H]Rauwolscine)
T3 construct: expressed in transfected cells; host or cells: CHO-K1
T3 sequence (P18089 1-450): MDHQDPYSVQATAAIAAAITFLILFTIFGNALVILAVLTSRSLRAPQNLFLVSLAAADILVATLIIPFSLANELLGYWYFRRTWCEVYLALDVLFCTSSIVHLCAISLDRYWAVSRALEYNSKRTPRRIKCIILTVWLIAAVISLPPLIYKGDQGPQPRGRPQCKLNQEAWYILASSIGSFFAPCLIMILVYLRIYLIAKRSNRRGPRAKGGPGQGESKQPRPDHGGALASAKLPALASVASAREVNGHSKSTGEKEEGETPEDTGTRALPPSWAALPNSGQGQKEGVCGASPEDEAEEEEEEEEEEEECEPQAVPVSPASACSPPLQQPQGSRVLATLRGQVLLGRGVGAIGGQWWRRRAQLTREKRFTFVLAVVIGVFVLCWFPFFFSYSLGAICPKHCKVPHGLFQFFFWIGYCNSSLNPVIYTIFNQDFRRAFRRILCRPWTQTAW
Summary of the method: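 Readout: percent inhibition of specific [3H]Rauwolscine binding, measured by filtration and counting. Conditions: CHO-K1 cell-expressed receptor, 2.5 nM radioligand, 60 min, 25° C, Tris-HCl pH 7.4 buffer with MgCl2, EDTA, BSA. Non-specific binding: 10 μM Prazosin.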

[4] = read-out: Percentage inhibition of ligand binding, Adrenergic α2A (0.1 μM), compound at 0.1 μM, [3H]MK-912, repeat datapoints each shown
[5] = read-out: Percentage inhibition of ligand binding, Adrenergic α1B (0.1 μM), compound at 0.1 μM, [3H]Prazosin, repeat datapoints each shown
[6] = compound at 0.03 μM, [3H]Rauwolscine, repeat datapoints each shown, 0.03 µM
[7] = read-out: Percentage inhibition of ligand binding, Adrenergic α2B (0.03 μM), compound at 0.03 μM, [3H]Rauwolscine, repeat datapoints each shown
[8] = compound at 0.1 μM, [3H]MK-912, repeat assays, each datapoint shown
[9] = compound at 0.1 μM, [3H]Prazosin, repeat assays, each datapoint shown, 0.1 µM
[10] = compound at 0.03 μM, [3H]Rauwolscine, repeat assays, each datapoint shown, 0.03 µM
[11] = compound at 0.1 μM, [3H]MK-912, repeat datapoints each shown
[12] = compound at 0.1 μM, [3H]Prazosin, repeat datapoints each shown, 0.1 µM

## Cc1ccc2c(c1)c1c(n2CC(O)c2ccc(C(N)=O)cc2)CCN(C)C1 (single isomer, unassigned) [139a, 4-[2-(2,8-dimethyl-1,2,3,4-tetrahydro-pyrido[4,3-b]indol-5-yl)-1-hydroxy-ethyl]-benzamide]
[1]; [4]
  inhibition at 0.1 µM: 16%
[2]; [5]
  inhibition at 0.1 µM: 17%
[3]; [6]
  Percentage inhibition of ligand binding, Adrenergic α2B (0.03 μM): 101%
[3]; read-out: Ki α2B
  Ki: 2.36 nM
[3]; [7]
  inhibition at 0.03 µM: 88%

## CN1CCc2c(c3cc(Cl)ccc3n2CC(O)c2cccnc2)C1 (single isomer, unassigned) [7b]
[1]; [8]
  Percentage inhibition of ligand binding, Adrenergic α2A: 25%
[2]; [9]
  Percentage inhibition of ligand binding, Adrenergic α1B: 37%
[3]; [10]
  Percentage inhibition of ligand binding, Adrenergic α2B: 74%

## COc1cccc2c3c(n(CC(O)c4ccncc4)c12)CCN(C)C3 (single isomer, unassigned) [44a, 2-(6-methoxy-2-methyl-3,4-dihydro-1H-pyrido[4,3-b]indol-5(2H)-yl)-1-(pyridin-4-yl)ethanol]
[1]; [8]
  Percentage inhibition of ligand binding, Adrenergic α2A: 11%
[2]; [9]
  Percentage inhibition of ligand binding, Adrenergic α1B: 12%
[3]; [10]
  Percentage inhibition of ligand binding, Adrenergic α2B: 33%

## Cc1ccc2c(c1)c1c(n2CC(CCN(C)C)c2ccncc2)CCN(C)C1 (centres unmarked) [II-232, [4-(2,8-dimethyl-1,2,3,4-tetrahydro-pyrido[4,3-b]indol-5-yl)-3-pyridin-4-yl-butyl]-dimethyl-amine]
[1]; [4]
  inhibition at 0.1 µM: 3%
[2]; [5]
  inhibition at 0.1 µM: 3%
[3]; [7]
  inhibition at 0.03 µM: 28%

## CC(O)(Cn1c2c(c3cc(Cl)ccc31)C1CCCN1CC2)c1cccnc1 (single isomer, unassigned) [II-130b, 1-(10-chloro-2,3,5,6-tetrahydro-1H-indolizino[7,8-b]indol-7(11cH)-yl)-2-(pyridin-3-yl)propan-2-ol]
[1]; [11]
  Percentage inhibition of ligand binding, Adrenergic α2A (0.1 μM): 15%
[2]; [12]
  Percentage inhibition of ligand binding, Adrenergic α1B (0.1 μM): 3%
[3]; [6]
  Percentage inhibition of ligand binding, Adrenergic α2B (0.03 μM): 33%

## OCCN1CCc2c(c3cc(Cl)ccc3n2CC(O)c2ccncc2)C1 (centres unmarked) [II-93a]
[1]; 0.1 μM compound, read-out: Percentage inhibition of ligand binding, Adrenergic α2A
  inhibition at 0.1 µM: 7%
[2]; 0.1 μM compound
  Percentage inhibition of ligand binding, Adrenergic α1B: 6%
[3]; 0.03 μM compound
  Percentage inhibition of ligand binding, Adrenergic α2B: 24%

## Cc1ccc2c(c1)c1c(n2CC(N=[N+]=[N-])c2ccc(C(N)=O)nc2)CCN(C)C1 (centres unmarked) [V-22, 5-[1-azido-2-(2,8-dimethyl-1,2,3,4-tetrahydro-pyrido[4,3-b]indol-5-yl)-ethyl]-pyridine-2-carboxylic acid amide]
[1]; [4]
  inhibition at 0.1 µM: 18%
[2]; [5]
  inhibition at 0.1 µM: 28%
[3]; [7]
  inhibition at 0.03 µM: 90%

## Cc1ccc2c(c1Cl)c1c(n2CC(C)(O)c2cccnc2)CCN(C)C1 (single isomer, unassigned) [II-124a, 1-(9-chloro-2,8-dimethyl-3,4-dihydro-1H-pyrido[4,3-b]indol-5(2H)-yl)-2-(pyridin-3-yl)propan-2-ol]
[1]; [11]
  Percentage inhibition of ligand binding, Adrenergic α2A (0.1 μM): 23%
[2]; [12]
  Percentage inhibition of ligand binding, Adrenergic α1B (0.1 μM): −2%
[3]; [7]
  inhibition at 0.03 µM: 26%

## Cc1ccc2c(c1)c1c(n2CC(O)c2ccc(F)cc2)CN(C)CC1 (single isomer, unassigned) [18a, 2-(2,6-dimethyl-1,2,3,4-tetrahydro-β-carbolin-9-yl)-1-(4-fluoro-phenyl)-ethanol]
[1]; compound at 0.1 μM, [3H]MK-912, repeat assays, each datapoint shown, read-out: Percentage inhibition of ligand binding, Adrenergic α2A
  inhibition at 0.1 µM: 50%
[2]; [9]
  Percentage inhibition of ligand binding, Adrenergic α1B: 55%
[3]; compound at 0.03 μM, [3H]Rauwolscine, repeat assays, each datapoint shown, read-out: Percentage inhibition of ligand binding, Adrenergic α2B
  inhibition at 0.03 µM: 54%

## CN1CCc2c(n(CC(O)c3ccncc3)c3ccc(Cl)cc23)C1 (single isomer, unassigned) [41b]
[1]; [8]
  Percentage inhibition of ligand binding, Adrenergic α2A: 8%
[2]; [9]
  Percentage inhibition of ligand binding, Adrenergic α1B: 50%
[3]; [10]
  Percentage inhibition of ligand binding, Adrenergic α2B: 50%

## Cc1ccc2c(c1)c1c(n2C(C)C(O)c2ccccc2)CCN(C)C1 (single isomer, unassigned) [II-95a, 2-(2,8-dimethyl-1,2,3,4-tetrahydro-pyrido[4,3-b]indol-5-yl)1-phenyl-propan-1-ol]
[1]; 0.1 μM compound
  Percentage inhibition of ligand binding, Adrenergic α2A: 16%
[2]; 0.1 μM compound, 0.1 µM
  Percentage inhibition of ligand binding, Adrenergic α1B: 32%
[3]; 0.03 μM compound, 0.03 µM
  Percentage inhibition of ligand binding, Adrenergic α2B: 53%

## CN1CCc2c(n(CC(O)c3ccncc3)c3ccc(Cl)cc23)CC1 (centres unmarked) [compound 15, 2-(9-chloro-3-methyl-2,3,4,5-tetrahydroazepino[4,5-b]indol-6(1H)-yl)-1-(pyridin-4-yl)ethanol]
[1]; [8]
  Percentage inhibition of ligand binding, Adrenergic α2A: 19%
[2]; compound at 0.1 μM, [3H]Prazosin, repeat assays, each datapoint shown, read-out: Percentage inhibition of ligand binding, Adrenergic α1B
  inhibition at 0.1 µM: 93%
[3]; [10]
  Percentage inhibition of ligand binding, Adrenergic α2B: 93%

## Cc1ccc2c(c1)c1c(n2CC(CC(O)C(C)(C)C)c2ccncc2)CCN(C)C1 (single isomer, unassigned) [II-227b, 6-(2,8-dimethyl-1,2,3,4-tetrahydro-pyrido[4,3-b]indol-5-yl)-2,2-dimethyl-5-pyridin-4-yl-hexan-3-ol]
[1]; [11]
  Percentage inhibition of ligand binding, Adrenergic α2A (0.1 μM): 6%
[2]; [12]
  Percentage inhibition of ligand binding, Adrenergic α1B (0.1 μM): 8%
[3]; [6]
  Percentage inhibition of ligand binding, Adrenergic α2B (0.03 μM): 18%

## Cc1cnc2c(c1)c1c(n2CC(O)c2ccncc2)CCNC1 (single isomer, unassigned) [58b, 2-(3-methyl-5,6,7,8-tetrahydro-1,6,9-triaza-fluoren-9-yl)-1-pyridin-4-yl-ethanol]
[1]; [8]
  Percentage inhibition of ligand binding, Adrenergic α2A: 0%
[2]; [9]
  Percentage inhibition of ligand binding, Adrenergic α1B: 24%
[3]; [10]
  Percentage inhibition of ligand binding, Adrenergic α2B: 39%

## CN1Cc2c(n(CC(O)c3ccncc3)c3ncccc23)C(C)(C)C1 (single isomer, unassigned) [17a, 1-pyridin-4-yl-2-(6,8,8-trimethyl-5,6,7,8-tetrahydro-1,6,9-triaza-fluoren-9-yl)-ethanol]
[1]; [8]
  Percentage inhibition of ligand binding, Adrenergic α2A: 19%
[2]; [9]
  Percentage inhibition of ligand binding, Adrenergic α1B: 13%
[3]; [10]
  Percentage inhibition of ligand binding, Adrenergic α2B: 32%

Reference: patent US8791132B2, “Compounds and methods for treatment of hypertension” (Medivation Technologies, Inc., priority 2011, dated 2014)
